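Compound exposure: 48 hours, 5 concentrations, 96-well plates. At the TGI there is no net growth.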
Assays:
Experiment in all cases: NCI-60 cell line screen, 48 h
[1] = tested on: A498 renal
[2] = tested on: BT-549 breast
[3] = tested on: CAKI-1 renal
[4] = tested on: DU-145 prostate
[5] = tested on: HCT-116 colon
[6] = tested on: HS 578T breast
[7] = tested on: LOX IMVI melanoma
[8] = tested on: SK-MEL-5 melanoma
[9] = tested on: SN12C renal
[10] = tested on: SW-620 colon
[11] = tested on: U251 CNS
[12] = tested on: HL-60(TB) leukemia

Measured: TGI

Cn1c(=O)nc2n(CCO)c(-c3ccccc3)c(-c3ccccc3)nc-2c1=O
> 100 µM: [1] | [2] | [3] | [4] | [5] | [6] | [7] | [8] | [9] | [10] | [11]

CCCCOC(=O)/C(CC(=O)C=C(C)C)=N\NS(=O)(=O)c1ccc(C)cc1
> 100 µM: [1] | [3] | [5] | [12] | [7] | [8] | [9] | [11]

CC(=O)Nc1ccc(-c2nnc(SCC(=O)Nc3ccccc3Cl)o2)cc1
> 100 µM: [1] | [3] | [5] | [12] | [7] | [8] | [9] | [10] | [11]

CC(=O)OC1[C@H]2c3cc4c(cc3CN3CCC(C[C@@H]1OC(C)=O)C23)OCO4 (some centres not stated)
> 75 µM: [5] | [12] | [7] | [9] | [10] | [11]

CC(C#N)Nc1ccc(Oc2ccc(C(C)(C)c3ccc(Oc4ccc(NC(C)C#N)cc4)cc3)cc2)cc1 (configuration not stated)
94 µM: [6]
> 100 µM: [1] | [2] | [3] | [5] | [7] | [8] | [9] | [10] | [11]

CCCCCCC(N)(CCCCCC)C(=O)Nn1c(C)ccc1C
> 100 µM: [1] | [2] | [4] | [5] | [12] | [6] | [8] | [9] | [10] | [11]

CCOC(=O)[C@H]1C[C@@H](C(=O)c2ccccc2)N2N=C(c3ccc(Br)cc3)C=C[C@H]12
> 100 µM: [1] | [2] | [3] | [4] | [5] | [6] | [7] | [9] | [10] | [11]

C1CSCC2(COC2)CS1
> 100 µM: [1] | [4] | [5] | [6] | [7] | [8] | [9] | [10] | [11]

Cc1ccc(-c2c(C#N)c(-c3ccc(N(C)C)cc3)c(C#N)c(=O)n2NS(=O)(=O)c2ccccc2)cc1
> 100 µM: [1] | [2] | [5] | [12] | [6] | [7] | [9] | [10] | [11]
98.3 µM: [3]
36.8 µM: [8]

N#C/C(=C\c1ccc(Cl)cc1)c1nc2ccccc2c(=O)[nH]1
69.2 µM: [2]
> 100 µM: [3] | [4] | [5] | [12] | [7] | [8] | [9] | [10] | [11]
60.6 µM: [6]

CCN(CC)CCCCC1CCN(CC(=O)N2c3ccccc3NC(=O)c3ccccc32)CC1
> 100 µM: [1] | [3] | [5] | [12] | [8] | [9] | [10]

— PubChem BioAssay (NCI)
